Reference: article PMC10486429, “Investigations Using Albumin Binders to Modify the Tissue Distribution Profile of Radiopharmaceuticals Exemplified with Folate Radioconjugates” (Cancers, 2023)
pKd: −log10 of the molar value. Where two headings read alike, the source gives them in different places.

Assays:
[1] = Radiolytic stability of 177Lu-DOTA-ALBs in PBS (HPLC); assay type: physicochemical; details: room temperature, 100 MBq/500 µL PBS
Experimental: The radiolabeling of DOTA-ALBs was carried out under standard labeling conditions at pH 4.5. The ligands (10−100 μM) were mixed with lutetium-177 (no-carrier added [^177Lu]LuCl3; in 0.04 M HCl; ITM GmbH Medical Isotopes, Munich, Germany) to reach molar activities of 25–50 MBq/nmol (Supplementary Materials Section S2). An analytical HPLC system equipped with a C18 column and a radioactivity detector was used for quality control of the radiolabeled DOTA-ALBs (Supplementary Materials Section S2). The ^177Lu-DOTA-ALBs were used for preclinical investigations without separation of the labeled from the unlabeled fraction. The radiolytic stability of the ^177Lu-DOTA-ALBs (50 MBq/nmol) diluted in phosphate-buffered saline (PBS; 100 MBq/500 μL) was assessed in vitro in the absence and presence of L-ascorbic acid (Supplementary Materials Section S3). The n-octanol/PBS distribution coefficients (logD values) were determined using a shake-flask method according to an established protocol (Supplementary Materials Section S4). The logD values were analyzed using a one-way ANOVA with Tukey’s multiple comparisons post-test using GraphPad Prism software (version 8). A p-value of <0.05 was considered a statistically significant difference. […]
S2. Radiolabeling of DOTA-ALBs with Lutetium-177
Purpose: The DOTA-ALBs were labeled with lutetium-177 for subsequent in vitro and […]
Methods: The DOTA-ALBs were dissolved in Milli-Q water at a concentration of 1 mM. Radiolabeling was performed by incubation of the respective DOTA-ALBs with lutetium-177 (no-carrier-added, in 0.04 M HCl; ITM Medical Isotopes GmbH, Munich, Germany) at 95 °C for 10 min in a 1:5 (v/v) mixture of sodium acetate (0.5 M) and HCl (0.05 M) at pH ~4.5 as previously reported. Quality control was performed by reversed-phase HPLC using an aliquot of the radiolabeled DOTA-ALBs (⁓1.5 MBq) diluted in Milli-Q water containing penta-sodium diethylenetriamine pentaacetic acid (Na5-DTPA; 50 µM). The HPLC system (Merck Hitachi LaChrom HPLC) was equipped with a D-7000 interface, a radioactivity detector (LB 508, Berthold Technologies GmbH), a L-6200A pump and a reversed-phase C18 column (XterraTM, 5 µm, 4.6×150 mm, Waters, USA). A linear gradient of 0.1% TFA in Milli-Q water (95–20%) and MeCN (5–80%) over 15 min was used as a mobile phase at a 1 mL/min flow rate. […]
to 50 MBq/nmol. The 177Lu-DOTA-ALBs were used without further purification for their in vitro and in vivo evaluation.
S3. Radiolytic Stability of 177Lu-DOTA-ALBs
Purpose: The stability of each 177Lu-labeled DOTA-ALB was assessed at a high activ-ity concentration to assess potential radiolytic degradation in the absence and presence of […]
Methods: After quality control of the labeled DOTA-ALBs using HPLC (t0), the radio-labeled DOTA-ALBs (50 MBq/nmol) were diluted in PBS pH 7.4 to obtain an activity con-centration of 100 MBq/500 µL. The samples were incubated at room temperature in the absence or presence of L-ascorbic acid (3 mg). Sodium acetate solution (0.5 M, pH 8.0, 150 µL) was added to the samples containing L-ascorbic acid in order to adjust the pH value to ⁓6.5. The integrity of the radiolabeled DOTA-ALBs was assessed after a 4 h- and 24 h-incubation period using HPLC as described above (Supplementary Material, Section S2). The HPLC chromatograms were analyzed by determination of the peak area of the radio-labeled DOTA-ALBs, the released lutetium-177 as well as potential degradation products of unknown structure. The quantity of the intact product was expressed as per-centage of the sum of integrated peak areas of the entire chromatogram and set in relation to the original value determined at t0 (radiochemical purity ≥95% set as 100%).
Results: The results are reported in the main article and presented together with the retention times of the product peak in Table S2.
Table S2. Radiolytic stability of 177Lu-DOTA-ALBs after incubation in the absence or presence of L-ascorbic acid at room temperature (average of n=2 individually performed experiments). […]

[2] = test system: KB tumor-bearing athymic nude mice; set-up: method as in earlier work; details: cited from earlier work
[3] = set-up: method as in PMID 33063250; details: n-octanol/PBS pH 7.4; cited from earlier work
folate receptor (FR) = target: T1, folate receptor (FR) (Homo sapiens, UniProt P15328); set-up: method as in PMID 34251183; details: IGROV-1 cells; read-out: KD Value (95% CI); cited from earlier work
T1 construct: endogenous in cells; host or cells: IGROV-1 (human ovarian carcinoma cell line), intact cells on ice
T1 sequence (P15328 25-257): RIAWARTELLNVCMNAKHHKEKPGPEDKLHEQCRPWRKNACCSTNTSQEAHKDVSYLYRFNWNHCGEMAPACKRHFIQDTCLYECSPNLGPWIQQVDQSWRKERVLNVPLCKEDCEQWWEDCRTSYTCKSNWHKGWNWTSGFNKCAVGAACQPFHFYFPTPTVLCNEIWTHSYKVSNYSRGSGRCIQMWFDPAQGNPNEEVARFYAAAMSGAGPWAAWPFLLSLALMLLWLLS

Work on O=C(O)CN1CCN(CC(=O)O)CCN(CC(=O)NCCC(=O)N[C@@H](CCCCNC(=O)c2ccc(CNC(=O)CCCCc3ccc(I)cc3)cc2)C(=O)O)CCN(CC(=O)O)CC1.[177Lu] [[^177Lu]Lu-DOTA-ALB-25] yielded an Intact radioligand ([1]; with L-ascorbic acid, 4 h) of 99%, an Intact radioligand ([1]; with L-ascorbic acid, 24 h) of 97% and an Intact radioligand ([1]; without L-ascorbic acid, 4 h) of 91%. For the same molecule, the Intact radioligand ([1]; without L-ascorbic acid, 24 h) was 41%.

Molecule O=C(O)CN1CCN(CC(=O)O)CCN(CC(=O)NCCC(=O)N[C@@H](CCCCNC(=O)c2ccc(CNC(=O)CCCc3ccc(I)cc3)cc2)C(=O)O)CCN(CC(=O)O)CC1.[177Lu] [[^177Lu]Lu-DOTA-ALB-3] has an Intact radioligand ([1]; with L-ascorbic acid, 4 h) of 99%, an Intact radioligand ([1]; with L-ascorbic acid, 24 h) of 97% and an Intact radioligand ([1]; without L-ascorbic acid, 4 h) of 89%. It also gave an Intact radioligand ([1]; without L-ascorbic acid, 24 h) of 39%.

In the case of CN1c2c(nc(N)[nH]c2=O)NC[C@H]1CNc1ccc(C(=O)N[C@@H](CCC(=O)N[C@@H](CCCCNC(=O)CN2CCN(CC(=O)O)CCN(CC(=O)O)CCN(CC(=O)O)CC2)C(=O)N[C@@H](CCCCNC(=O)CCCc2ccc(I)cc2)C(=O)O)C(=O)O)cc1 [[^177Lu]Lu-6R-RedFol-1, metal not drawn], the “Blood, accumulated activity” value ([2]; 1 h p.i.) is given as 23 ± 3 % IA/g, the “Bone, accumulated activity” value ([2]; 1 h p.i.) is given as 2.1 ± 0.3 % IA/g and the “Intestines, accumulated activity” value ([2]; 1 h p.i.) is given as 2.9 ± 0.3 % IA/g. For the same molecule, the “Kidneys, accumulated activity” value ([2]; 1 h p.i.) was 8.4 ± 0.8 % IA/g, the “Liver, accumulated activity” value ([2]; 1 h p.i.) was 3.3 ± 0.3 % IA/g and the “Lung, accumulated activity” value ([2]; 1 h p.i.) was 10 ± 1 % IA/g. For the same molecule, the “Muscle, accumulated activity” value ([2]; 1 h p.i.) was 1.6 ± 0.2 % IA/g, the “Salivary glands, accumulated activity” value ([2]; 1 h p.i.) was 5.0 ± 0.3 % IA/g and the “Spleen, accumulated activity” value ([2]; 1 h p.i.) was 2.6 ± 0.2 % IA/g. The “Stomach, accumulated activity” value ([2]; 1 h p.i.) was 1.9 ± 0.4 % IA/g, the Tumor-to-blood ratio ([2]; 1 h p.i.) was 0.46 ± 0.01 and the Tumor-to-kidney ratio ([2]; 1 h p.i.) was 1.3 ± 0.1. For the same molecule, the Tumor-to-liver ratio ([2]; 1 h p.i.) was 3.3 ± 0.2, the “Blood, accumulated activity” value ([2]; 4 h p.i.) was 17 ± 1 % IA/g and the “Bone, accumulated activity” value ([2]; 4 h p.i.) was 1.9 ± 0.2 % IA/g. The “Intestines, accumulated activity” value ([2]; 4 h p.i.) was 2.6 ± 0.7 % IA/g, the “KB tumor, accumulated activity” value ([2]; 4 h p.i.) was 20 ± 2 % IA/g and the “Kidneys, accumulated activity” value ([2]; 4 h p.i.) was 12 ± 1 % IA/g. The “Liver, accumulated activity” value ([2]; 4 h p.i.) was 3.0 ± 0.2 % IA/g, the “Lung, accumulated activity” value ([2]; 4 h p.i.) was 7.9 ± 1.4 % IA/g and the “Muscle, accumulated activity” value ([2]; 4 h p.i.) was 1.4 ± 0.1 % IA/g. The “Salivary glands, accumulated activity” value ([2]; 4 h p.i.) was 5.7 ± 0.5 % IA/g, the “Spleen, accumulated activity” value ([2]; 4 h p.i.) was 2.2 ± 0.2 % IA/g and the “Stomach, accumulated activity” value ([2]; 4 h p.i.) was 1.9 ± 0.3 % IA/g. The Tumor-to-blood ratio ([2]; 4 h p.i.) was 1.2 ± 0.1, the Tumor-to-kidney ratio ([2]; 4 h p.i.) was 1.7 ± 0.1 and the Tumor-to-liver ratio ([2]; 4 h p.i.) was 6.9 ± 0.7. The “Blood, accumulated activity” value ([2]; 24 h p.i.) was 5.4 ± 0.9 % IA/g, the “Bone, accumulated activity” value ([2]; 24 h p.i.) was 0.91 ± 0.22 % IA/g and the “Intestines, accumulated activity” value ([2]; 24 h p.i.) was 0.80 ± 0.09 % IA/g. For the same molecule, the “KB tumor, accumulated activity” value ([2]; 24 h p.i.) was 47 ± 4 % IA/g, the “Kidneys, accumulated activity” value ([2]; 24 h p.i.) was 24 ± 4 % IA/g and the “Liver, accumulated activity” value ([2]; 24 h p.i.) was 1.3 ± 0.2 % IA/g. For the same molecule, the “Lung, accumulated activity” value ([2]; 24 h p.i.) was 3.2 ± 0.6 % IA/g, the “Muscle, accumulated activity” value ([2]; 24 h p.i.) was 0.82 ± 0.22 % IA/g and the “Salivary glands, accumulated activity” value ([2]; 24 h p.i.) was 5.2 ± 1.0 % IA/g. The “Spleen, accumulated activity” value ([2]; 24 h p.i.) was 1.7 ± 0.1 % IA/g, the “Stomach, accumulated activity” value ([2]; 24 h p.i.) was 0.80 ± 0.11 % IA/g and the Tumor-to-blood ratio ([2]; 24 h p.i.) was 8.8 ± 0.8. For the same molecule, the Tumor-to-kidney ratio ([2]; 24 h p.i.) was 2.0 ± 0.4, the Tumor-to-liver ratio ([2]; 24 h p.i.) was 35 ± 4 and the “logD Values” [3] was −3.9 ± 0.2 ^4. For the same molecule, the pKd (folate receptor (FR)) was 8.59.

Work on O=C(O)CN1CCN(CC(=O)O)CCN(CC(=O)NCCC(=O)N[C@@H](CCCCNC(=O)CCCCc2ccc(I)cc2)C(=O)O)CCN(CC(=O)O)CC1.[177Lu] [[^177Lu]Lu-DOTA-ALB-24] yielded an Intact radioligand ([1]; with L-ascorbic acid, 4 h) of 99%, an Intact radioligand ([1]; with L-ascorbic acid, 24 h) of 95% and an Intact radioligand ([1]; without L-ascorbic acid, 4 h) of 88%. For the same molecule, the Intact radioligand ([1]; without L-ascorbic acid, 24 h) was 39%.
